Data as given in the NIST ThermoML archive (doi:10.1016/j.jct.2018.02.022).
Where “and” joins values, the source holds several entries; their conditions need not be identical. Equal entries are not always repeated. Numbers after ± are expanded uncertainties.

Assay: xn = mol fraction of the nth substance listed
Settings: 92.3 kPa, Liquid; for viscosity: Concentric cylinders viscometry; for speed of sound: Frequency=3 MHz, Single path-length method; for mass density: Vibrating tube method

CCO [ethanol] + O
Settings	mass density, 303.15 K	mass density, 308.15 K	speed of sound, 303.15 K [m/s]	speed of sound, 308.15 K [m/s]	viscosity, 303.15 K [mPa·s]	viscosity, 308.15 K [mPa·s]
x1 = 0.0024	994.464 ± 3 kg/m3	992.863 ± 3 kg/m3	1513.4 ± 1.8	1523.3 ± 1.8	–	–
x1 = 0.0201	986.86 ± 3.2 kg/m3	985.15 ± 3.2 kg/m3	–	–	0.9816 ± 0.14	0.8821 ± 0.12
x1 = 0.0202	986.01 ± 3.2 kg/m3	984.706 ± 3.2 kg/m3	1541.3 ± 1.8	1548.3 ± 1.8	–	–
x1 = 0.0295	983.11 ± 3.2 kg/m3	981.361 ± 3.2 kg/m3	1555 ± 1.8	1560.3 ± 1.8	–	–
x1 = 0.0366	980.577 ± 3.2 kg/m3	978.735 ± 3.2 kg/m3	1564.9 ± 1.8	1568.9 ± 1.8	–	–
x1 = 0.0408	978.54 ± 3.2 kg/m3	976.58 ± 3.2 kg/m3	–	–	1.162 ± 0.16	1.006 ± 0.14
x1 = 0.0497	976.06 ± 3.2 kg/m3	973.32 ± 3.2 kg/m3	–	–	1.223 ± 0.17	1.073 ± 0.15
x1 = 0.0513	975.532 ± 3.2 kg/m3	973.534 ± 3.2 kg/m3	1583.5 ± 1.8	1584.5 ± 1.8	–	–
x1 = 0.06	971.89 ± 3.2 kg/m3 and 972.787 ± 3.2 kg/m3	970.651 ± 3.2 kg/m3 and 969.36 ± 3.2 kg/m3	1592.4 ± 1.8	1591.8 ± 1.8	1.323 ± 0.19	1.158 ± 0.16
x1 = 0.0707	969.513 ± 3.2 kg/m3	967.196 ± 3.2 kg/m3	1601.4 ± 1.8	1598.7 ± 1.8	–	–
x1 = 0.0796	966.81 ± 3.2 kg/m3	964.08 ± 3.2 kg/m3	–	–	1.49 ± 0.21	1.284 ± 0.18
x1 = 0.0801	966.689 ± 3.2 kg/m3	964.224 ± 3.2 kg/m3	1607 ± 1.8	1602.7 ± 1.8	–	–
x1 = 0.0904	963.577 ± 3.2 kg/m3	960.944 ± 3.2 kg/m3	1610.8 ± 1.8	1604.7 ± 1.8	–	–
x1 = 0.0997	960.797 ± 3.2 kg/m3	958.013 ± 3.2 kg/m3	1611.9 ± 1.8	1604.4 ± 1.8	–	–
x1 = 0.1004	958.69 ± 3.2 kg/m3	955.87 ± 3.2 kg/m3	–	–	1.656 ± 0.23	1.43 ± 0.2
x1 = 0.1294	951.878 ± 3.2 kg/m3	948.682 ± 3.2 kg/m3	1602.7 ± 1.8	1592.3 ± 1.8	–	–
x1 = 0.1497	945.612 ± 3.2 kg/m3	942.174 ± 3.2 kg/m3	1588.3 ± 1.8	1576.5 ± 1.8	–	–
x1 = 0.1499	945.56 ± 3.2 kg/m3	942.15 ± 3.2 kg/m3	–	–	1.88 ± 0.26	1.591 ± 0.22
x1 = 0.1984	928.77 ± 3.2 kg/m3	925.04 ± 3.2 kg/m3	–	–	1.994 ± 0.28	1.696 ± 0.24
x1 = 0.2008	929.658 ± 3.2 kg/m3	925.836 ± 3.2 kg/m3	1540.8 ± 1.8	1527.8 ± 1.8	–	–
x1 = 0.2499	915.3 ± 3.2 kg/m3	911.28 ± 3.2 kg/m3	–	–	2.048 ± 0.29	1.719 ± 0.24
x1 = 0.2503	914.742 ± 3.2 kg/m3	910.712 ± 3.2 kg/m3	1493.5 ± 1.8	1480 ± 1.8	–	–
x1 = 0.2998	900.761 ± 3.2 kg/m3	896.603 ± 3.2 kg/m3	1450.6 ± 1.8	1436.6 ± 1.8	–	–
x1 = 0.3016	900.76 ± 3.2 kg/m3	896.6 ± 3.2 kg/m3	–	–	1.982 ± 0.28	1.697 ± 0.24
x1 = 0.3499	888.09 ± 3.2 kg/m3	883.84 ± 3.2 kg/m3	–	–	1.934 ± 0.27	1.664 ± 0.23
x1 = 0.3507	887.521 ± 3.2 kg/m3	883.273 ± 3.2 kg/m3	1411.8 ± 1.8	1397.3 ± 1.8	–	–
x1 = 0.399	876.09 ± 3.2 kg/m3	871.78 ± 3.2 kg/m3	–	–	1.863 ± 0.26	1.617 ± 0.23
x1 = 0.3992	875.988 ± 3.2 kg/m3	871.678 ± 3.2 kg/m3	1379.4 ± 1.8	1364.6 ± 1.8	–	–
x1 = 0.4495	865.03 ± 3.2 kg/m3	860.66 ± 3.2 kg/m3	–	–	1.783 ± 0.25	1.55 ± 0.22
x1 = 0.4514	864.712 ± 3.2 kg/m3	860.353 ± 3.2 kg/m3	1348.7 ± 1.8	1333.4 ± 1.8	–	–
x1 = 0.4989	855.7 ± 3.2 kg/m3	851.3 ± 3.2 kg/m3	–	–	1.697 ± 0.24	1.482 ± 0.21
x1 = 0.5002	854.622 ± 3.2 kg/m3	850.223 ± 3.2 kg/m3	1322.3 ± 1.8	1306.7 ± 1.8	–	–
x1 = 0.5494	845.433 ± 3.2 kg/m3	841.009 ± 3.2 kg/m3	1298.6 ± 1.8	1282.7 ± 1.8	–	–
x1 = 0.5495	846.35 ± 3.2 kg/m3	841.93 ± 3.2 kg/m3	–	–	1.636 ± 0.23	1.437 ± 0.2
x1 = 0.6018	836.274 ± 3.2 kg/m3	831.83 ± 3.2 kg/m3	1275.2 ± 1.8	1259 ± 1.8	–	–
x1 = 0.6067	835.6 ± 3.2 kg/m3	831.06 ± 3.2 kg/m3	–	–	1.528 ± 0.21	1.347 ± 0.19
x1 = 0.6503	828.55 ± 3.2 kg/m3 and 828.435 ± 3.2 kg/m3	823.98 ± 3.2 kg/m3 and 824.09 ± 3.2 kg/m3	1255.3 ± 1.8	1238.8 ± 1.8	1.46 ± 0.2	1.292 ± 0.18
x1 = 0.6956	821.65 ± 3.2 kg/m3	817.19 ± 3.2 kg/m3	–	–	1.388 ± 0.19	1.229 ± 0.17
x1 = 0.7006	820.66 ± 3.2 kg/m3	816.2 ± 3.2 kg/m3	1235.5 ± 1.8	1218.8 ± 1.8	–	–
x1 = 0.7355	815.498 ± 3.2 kg/m3	811.052 ± 3.2 kg/m3	1222.2 ± 1.8	1206.3 ± 1.8	–	–
x1 = 0.75	813.63 ± 3.2 kg/m3	809.16 ± 3.1 kg/m3	–	–	1.315 ± 0.18	1.171 ± 0.16
x1 = 0.7843	809.09 ± 3.1 kg/m3	804.63 ± 3.1 kg/m3	–	–	1.272 ± 0.18	1.135 ± 0.16
x1 = 0.7965	807.074 ± 3.2 kg/m3	802.628 ± 3.2 kg/m3	1199.9 ± 1.8	1183 ± 1.8	–	–
x1 = 0.8433	800.833 ± 3.2 kg/m3	796.401 ± 3.1 kg/m3	1183.1 ± 1.8	1166.1 ± 1.8	–	–
x1 = 0.8475	801.24 ± 3.1 kg/m3	796.81 ± 3.1 kg/m3	–	–	1.201 ± 0.17	1.077 ± 0.15
x1 = 0.8864	795.58 ± 3.1 kg/m3	791.17 ± 3.1 kg/m3	–	–	1.141 ± 0.16	1.027 ± 0.14
x1 = 0.892	794.442 ± 3.1 kg/m3	790.037 ± 3.1 kg/m3	1165.4 ± 1.8	1148.7 ± 1.8	–	–
x1 = 0.9093	792.256 ± 3.1 kg/m3	787.861 ± 3.1 kg/m3	1159.2 ± 1.8	1142.6 ± 1.8	–	–
x1 = 0.9207	790.841 ± 3.1 kg/m3	786.448 ± 3.1 kg/m3	1155.2 ± 1.8	1138.3 ± 1.8	–	–
x1 = 0.929	789.85 ± 3.1 kg/m3	785.46 ± 3.1 kg/m3	–	–	1.086 ± 0.15	0.9821 ± 0.14
x1 = 0.9307	789.562 ± 3.1 kg/m3	785.175 ± 3.1 kg/m3	1151.5 ± 1.8	1134.6 ± 1.8	–	–
x1 = 0.9398	788.477 ± 3.1 kg/m3	784.096 ± 3.1 kg/m3	1148.3 ± 1.8	1131.4 ± 1.8	–	–
x1 = 0.9483	787.394 ± 3.1 kg/m3	783.019 ± 3.1 kg/m3	1145.2 ± 1.8	1128.4 ± 1.8	–	–
x1 = 0.9603	785.958 ± 3.1 kg/m3	781.59 ± 3.1 kg/m3	1141.1 ± 1.8	1124.2 ± 1.8	–	–
x1 = 0.9702	784.743 ± 3.1 kg/m3	780.379 ± 3.1 kg/m3	1137.5 ± 1.8	1120.6 ± 1.8	–	–
x1 = 0.9801	783.417 ± 3.1 kg/m3	779.061 ± 3.1 kg/m3	1134.3 ± 1.8	1117.5 ± 1.8	–	–
x1 = 0.9895	782.456 ± 3.1 kg/m3	778.103 ± 3.1 kg/m3	1130.8 ± 1.8	1114 ± 1.8	–	–
x1 = 1	780.941 ± 3 kg/m3	776.592 ± 3 kg/m3	1126.4 ± 1.8	1109.6 ± 1.8	0.992 ± 0.14	0.9039 ± 0.13
